Data on two compounds can be found in ChEMBL document CHEMBL6071142, “Isoalantolactone/hydroxamic acid hybrids as potent dual STAT3/HDAC inhibitors and self-assembled nanoparticles for cancer therapy” (Eur J Med Chem, 2024).

One assay deals with Histone deacetylase 1 (Homo sapiens, UniProt Q13547). The experiment in a line: Inhibition of recombinant human HDAC1 using Boc-Lys (acetyl)-AMC as substrate preincubated with compound for 1 hr followed by substrate addition and measured after 30 mins by microplate reader assay.
Sequence of Histone deacetylase 1 (Q13547 whole entry): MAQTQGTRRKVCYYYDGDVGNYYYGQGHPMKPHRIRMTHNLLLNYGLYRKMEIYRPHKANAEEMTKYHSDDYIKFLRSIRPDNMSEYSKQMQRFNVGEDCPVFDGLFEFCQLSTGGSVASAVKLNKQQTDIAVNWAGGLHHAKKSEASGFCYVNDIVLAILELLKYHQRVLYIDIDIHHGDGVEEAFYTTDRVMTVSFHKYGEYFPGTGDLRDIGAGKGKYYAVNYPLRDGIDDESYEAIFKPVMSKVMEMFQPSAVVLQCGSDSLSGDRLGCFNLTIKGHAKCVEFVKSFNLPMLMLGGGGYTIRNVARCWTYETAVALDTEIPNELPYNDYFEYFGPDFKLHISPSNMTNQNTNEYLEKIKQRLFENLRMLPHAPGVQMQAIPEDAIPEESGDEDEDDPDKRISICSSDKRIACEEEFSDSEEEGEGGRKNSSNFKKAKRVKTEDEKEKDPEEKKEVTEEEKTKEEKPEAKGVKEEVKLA
The target of the next assay is Histone deacetylase 2 (Homo sapiens, UniProt Q92769). Briefly: Inhibition of recombinant human HDAC2 using Boc-Lys (acetyl)-AMC as substrate preincubated with compound for 1 hr followed by substrate addition and measured after 30 mins by microplate reader assay.
Sequence of Histone deacetylase 2 (Q92769 whole entry): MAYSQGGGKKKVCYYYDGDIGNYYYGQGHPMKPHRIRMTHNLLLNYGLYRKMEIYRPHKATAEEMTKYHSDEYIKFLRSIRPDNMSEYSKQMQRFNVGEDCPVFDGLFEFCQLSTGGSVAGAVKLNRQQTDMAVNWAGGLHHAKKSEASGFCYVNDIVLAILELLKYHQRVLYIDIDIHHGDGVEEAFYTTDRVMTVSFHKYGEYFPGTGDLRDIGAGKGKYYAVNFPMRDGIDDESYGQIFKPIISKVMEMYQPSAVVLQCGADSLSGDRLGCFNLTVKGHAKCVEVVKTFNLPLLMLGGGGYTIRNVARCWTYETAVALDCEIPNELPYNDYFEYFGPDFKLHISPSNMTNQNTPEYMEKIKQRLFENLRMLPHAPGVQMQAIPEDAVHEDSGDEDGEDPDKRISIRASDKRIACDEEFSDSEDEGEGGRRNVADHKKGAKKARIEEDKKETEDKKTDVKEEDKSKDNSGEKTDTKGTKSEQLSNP
Another assay concerns the target Histone deacetylase 3 (Homo sapiens, UniProt O15379). Briefly: Inhibition of recombinant human HDAC3 using Boc-Lys (acetyl)-AMC as substrate preincubated with compound for 1 hr followed by substrate addition and measured after 30 mins by microplate reader assay.
In assay [1] the target is T1, Protein deacetylase HDAC6 (Homo sapiens, UniProt Q9UBN7).
T1 sequence (Q9UBN7 whole entry): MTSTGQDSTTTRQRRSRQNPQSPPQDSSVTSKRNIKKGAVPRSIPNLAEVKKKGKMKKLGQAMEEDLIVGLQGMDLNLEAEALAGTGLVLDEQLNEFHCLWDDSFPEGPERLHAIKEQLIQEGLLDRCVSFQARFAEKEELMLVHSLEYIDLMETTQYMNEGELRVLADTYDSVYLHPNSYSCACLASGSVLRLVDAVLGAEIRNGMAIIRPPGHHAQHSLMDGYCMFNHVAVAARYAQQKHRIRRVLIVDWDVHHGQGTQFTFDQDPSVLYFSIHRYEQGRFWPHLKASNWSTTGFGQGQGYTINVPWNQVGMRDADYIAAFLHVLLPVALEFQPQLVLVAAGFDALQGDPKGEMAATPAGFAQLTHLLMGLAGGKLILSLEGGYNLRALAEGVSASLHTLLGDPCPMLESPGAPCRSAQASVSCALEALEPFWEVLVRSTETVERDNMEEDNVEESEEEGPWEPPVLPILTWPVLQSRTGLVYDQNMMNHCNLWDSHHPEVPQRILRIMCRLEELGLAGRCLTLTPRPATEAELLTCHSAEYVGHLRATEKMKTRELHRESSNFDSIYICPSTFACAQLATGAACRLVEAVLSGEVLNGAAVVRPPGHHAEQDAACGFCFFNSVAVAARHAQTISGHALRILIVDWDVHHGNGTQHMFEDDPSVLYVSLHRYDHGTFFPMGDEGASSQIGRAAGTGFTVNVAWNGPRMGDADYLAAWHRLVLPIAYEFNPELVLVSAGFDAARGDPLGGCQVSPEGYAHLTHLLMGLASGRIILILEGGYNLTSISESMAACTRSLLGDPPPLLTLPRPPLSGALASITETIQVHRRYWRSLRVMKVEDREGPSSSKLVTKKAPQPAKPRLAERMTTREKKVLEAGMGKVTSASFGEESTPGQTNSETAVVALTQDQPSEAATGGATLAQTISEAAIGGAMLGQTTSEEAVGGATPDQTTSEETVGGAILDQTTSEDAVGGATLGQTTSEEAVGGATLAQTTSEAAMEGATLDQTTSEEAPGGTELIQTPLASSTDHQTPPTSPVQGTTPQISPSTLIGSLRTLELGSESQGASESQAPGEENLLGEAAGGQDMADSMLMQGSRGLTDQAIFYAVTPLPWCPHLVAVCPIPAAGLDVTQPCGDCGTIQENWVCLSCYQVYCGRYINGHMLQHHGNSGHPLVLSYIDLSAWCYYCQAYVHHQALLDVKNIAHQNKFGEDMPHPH
Briefly: Inhibition of recombinant human HDAC6 using Boc-Lys (acetyl)-AMC as substrate preincubated with compound for 1 hr followed by substrate addition and measured after 30 mins by microplate reader assay.

Assay [2] deals with Signal transducer and activator of transcription 3 (Homo sapiens, UniProt P40763). The experiment in a line: Binding affinity to STAT3 (unknown origin) assessed as dissociation constant by SPR assay.
Sequence of Signal transducer and activator of transcription 3 (P40763 whole entry): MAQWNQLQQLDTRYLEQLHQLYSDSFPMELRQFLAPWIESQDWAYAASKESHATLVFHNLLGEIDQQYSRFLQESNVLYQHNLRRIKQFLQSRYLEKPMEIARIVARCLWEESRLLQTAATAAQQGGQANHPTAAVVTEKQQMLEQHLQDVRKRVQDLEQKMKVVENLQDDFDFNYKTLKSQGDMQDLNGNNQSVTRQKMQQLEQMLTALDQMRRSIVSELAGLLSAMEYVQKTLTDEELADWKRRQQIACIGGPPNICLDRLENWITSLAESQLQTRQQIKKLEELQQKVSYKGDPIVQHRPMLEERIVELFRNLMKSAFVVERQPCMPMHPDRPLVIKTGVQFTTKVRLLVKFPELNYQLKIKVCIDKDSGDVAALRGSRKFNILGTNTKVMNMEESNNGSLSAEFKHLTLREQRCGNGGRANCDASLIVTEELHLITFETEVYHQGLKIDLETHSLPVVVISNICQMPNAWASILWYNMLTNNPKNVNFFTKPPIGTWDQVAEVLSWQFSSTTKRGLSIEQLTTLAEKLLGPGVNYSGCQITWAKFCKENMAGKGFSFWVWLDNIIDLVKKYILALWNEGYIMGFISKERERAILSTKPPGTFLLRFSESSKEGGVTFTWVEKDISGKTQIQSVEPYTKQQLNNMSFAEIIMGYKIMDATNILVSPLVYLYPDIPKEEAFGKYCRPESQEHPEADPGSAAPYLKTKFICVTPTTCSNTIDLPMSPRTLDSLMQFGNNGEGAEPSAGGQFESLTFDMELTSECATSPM
Assay [3] deals with A549. The experiment in a line: cells. Format: functional, cell-based. The conditions noted are these: Homo sapiens, A549, 72 h.
Description: Antiproliferative activity against human A549 cells assessed as inhibition of cell proliferation incubated for 72 hrs by CCK-8 assay
A further assay has as its system HeLa. Briefly: cells. It counts as functional, cell-based. The conditions noted are these: Homo sapiens, 72 h.
The next assay concerns HepG2. Briefly: Antiproliferative activity against human HepG2 cells assessed as inhibition of cell proliferation incubated for 72 hrs by CCK-8 assay. It counts as functional, cell-based. The conditions noted are these: HepG2, 72 h. For orientation: Tetrazolium assays rely on reduction of a dye to a coloured formazan, in cell work by metabolically active cells.
Assay [4] deals with A549. Briefly: Induction of apoptosis in human A549 cells assessed as viable cells at 2 uM incubated for 24 hrs by Annexin V-FITC/PI staining based flow cytometric analysis (reference value: 95.08%). It counts as functional.
For assay [5], the system named is A549. The experiment in a line: Induction of apoptosis in human A549 cells assessed as early apoptotic cells at 2 uM incubated for 24 hrs by Annexin V-FITC/PI staining based flow cytometric analysis (reference value: 1.53%). Format: functional. (In general: Flow cytometry measures light scatter and fluorescence of single cells or particles in a stream.)
The test system of assay [6] is A549. The experiment in a line: Induction of apoptosis in human A549 cells assessed as late apoptotic cells at 2 uM incubated for 24 hrs by Annexin V-FITC/PI staining based flow cytometric analysis (reference value: 2.18%). It counts as functional.
In assay [7] the test system is A549. The experiment in a line: Induction of apoptosis in human A549 cells assessed as necrotic cells at 2 uM incubated for 24 hrs by Annexin V-FITC/PI staining based flow cytometric analysis (reference value: 1.20%). Format: functional.
In a further assay the test system is HCT-116. Briefly: cells. The conditions noted are these: Homo sapiens, HCT-116, 72 h.
Assay [8] concerns A549. Briefly: In vivo antitumor activity against human A549 cells xenografted in female BALB/c nu/nu mouse assessed as tumor volume at 10 mg/kg, iv administered every 3 days and measured on 18 day relative to control. It counts as functional. The conditions noted are these: time 3 day.

Sequence of Histone deacetylase 3 (O15379 whole entry): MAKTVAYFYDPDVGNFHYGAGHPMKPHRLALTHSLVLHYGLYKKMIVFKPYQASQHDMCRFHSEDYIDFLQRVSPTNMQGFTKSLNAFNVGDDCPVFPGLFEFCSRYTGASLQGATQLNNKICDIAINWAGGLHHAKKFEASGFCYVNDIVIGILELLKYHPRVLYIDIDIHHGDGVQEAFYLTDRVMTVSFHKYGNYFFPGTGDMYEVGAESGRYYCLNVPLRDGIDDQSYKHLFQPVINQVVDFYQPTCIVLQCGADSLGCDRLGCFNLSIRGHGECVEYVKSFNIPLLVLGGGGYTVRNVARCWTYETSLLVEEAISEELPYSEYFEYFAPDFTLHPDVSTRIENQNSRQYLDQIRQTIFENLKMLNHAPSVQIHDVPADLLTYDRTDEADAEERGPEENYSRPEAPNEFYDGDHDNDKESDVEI
Description for HCT-116: Antiproliferative activity against human HCT-116 cells assessed as inhibition of cell proliferation incubated for 72 hrs by CCK-8 assay
Description for HeLa: Antiproliferative activity against human Hela cells assessed as inhibition of cell proliferation incubated for 72 hrs by CCK-8 assay

Regarding `C=C1C(=O)O[C@@H]2C[C@@]3(C)CCCC(=C)[C@@H]3C[C@H]12` [ISOALANTOLACTONE], the concentration for half-maximal inhibition (IC50) (commonly the midpoint of a concentration-inhibition curve) on Histone deacetylase 1 is > 1000 nM; on Histone deacetylase 2 it was > 1000 nM; on Histone deacetylase 3, > 1000 nM; in assay [1], > 1000 nM; with A549 [3], 1810 nM; in the assay with HeLa it was 4.38 µM. Besides, the figures for the IC50 with HepG2 and with HCT-116 were 7.25 µM and 2610 nM, respectively. Further, the Kd (in general, the constant that tells how readily two partners part at equilibrium) in [2] was determined as 46.1 µM. Moreover, the viability at 2 µM in the assay with A549 [4] (Homo sapiens, A549, read-out: Activity) worked out at 83.6%. The figures for the Activity in the assay on A549 [5], in the assay on A549 [6] and in the assay with A549 [7] were 3.67%, 10.91% and 1.82%, respectively.

As for `O=C(CCCCCCC(=O)Nc1ccccc1)NO` [VORINOSTAT], in assay [2], the Kd was > 50 µM. The Activity with A549 [4] worked out at 67.04%; in the assay on A549 [5], 5.72%; in the assay with A549 [6], 24.68%; in the assay on A549 [7] it was 2.58%; in the assay with A549 [8], 61%. In the assay with HCT-116, the IC50 was found to be 1870 nM.
